Data: patent publication US20250059174A1, “Pharmaceutical Compounds and Compositions as C-Kit Kinase Inhibitors” (Enanta Pharmaceuticals, Inc., priority 2023, published 2025)

Target: Recombinant human c-KIT kinase (Homo sapiens (Human), UniProt P10721)
Test: c-KIT kinase chemiluminescence assay (ADP-Glo)
Assay type: biochemical
Conditions: ATP 50 μM
Procedure, shortened: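 Recombinant human c-KIT preincubated 30 min at RT in 40 mM Tris pH 7.5, 20 mM MgCl2, 0.1 mg/mL BSA, 50 μM DTT, then reacted 2 h at RT with ATP and polyEY substrate. ADP-Glo luminescence readout; activity normalized to high/low controls, IC50 and Hill coefficient from inhibitor-versus-normalized-response fit.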

Recombinant human c-KIT kinase, sequence (P10721 26-976): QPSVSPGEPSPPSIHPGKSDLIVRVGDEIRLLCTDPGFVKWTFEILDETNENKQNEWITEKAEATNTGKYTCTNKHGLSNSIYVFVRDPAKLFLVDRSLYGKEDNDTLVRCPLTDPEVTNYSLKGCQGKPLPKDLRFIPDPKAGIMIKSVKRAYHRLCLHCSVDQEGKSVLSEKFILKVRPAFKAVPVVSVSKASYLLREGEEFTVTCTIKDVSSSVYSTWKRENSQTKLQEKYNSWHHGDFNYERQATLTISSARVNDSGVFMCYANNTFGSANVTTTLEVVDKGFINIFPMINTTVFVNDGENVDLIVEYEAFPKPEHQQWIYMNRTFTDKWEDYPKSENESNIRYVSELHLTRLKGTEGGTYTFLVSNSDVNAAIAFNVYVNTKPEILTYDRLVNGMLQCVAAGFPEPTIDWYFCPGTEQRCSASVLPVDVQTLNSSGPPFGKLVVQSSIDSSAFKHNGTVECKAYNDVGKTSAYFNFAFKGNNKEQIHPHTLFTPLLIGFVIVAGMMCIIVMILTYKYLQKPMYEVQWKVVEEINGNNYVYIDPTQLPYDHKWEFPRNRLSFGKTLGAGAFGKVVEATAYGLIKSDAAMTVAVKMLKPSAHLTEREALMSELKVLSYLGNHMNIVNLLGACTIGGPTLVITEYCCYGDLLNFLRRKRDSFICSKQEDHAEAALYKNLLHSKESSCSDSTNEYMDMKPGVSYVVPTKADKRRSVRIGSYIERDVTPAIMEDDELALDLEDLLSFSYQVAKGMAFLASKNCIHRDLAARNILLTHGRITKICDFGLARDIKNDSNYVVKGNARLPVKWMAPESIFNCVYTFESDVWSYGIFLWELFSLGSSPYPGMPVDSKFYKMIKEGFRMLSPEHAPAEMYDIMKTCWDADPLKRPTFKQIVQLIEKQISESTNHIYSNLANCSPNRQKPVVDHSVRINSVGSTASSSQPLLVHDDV

Row | IC50 [nM] | SMILES
1 | > 1000 | Cc1ccc(-c2noc([C@H]3C[C@@H]3F)n2)cc1NC(=O)c1cnn2ccc(-c3cc(C(F)(F)F)nn3C(C)C)cc12 [Example 171-23]
2 | < 100 | Cc1ccc(-c2noc([C@H]3C[C@@H](OC(F)F)C3)n2)cc1NC(=O)c1cnn2ccc(N3CC4(C3)CC(O)(C(F)F)C4)cc12 [Example 281-20]
3 | 100 to 1000 | Cc1sc(-c2nccc(C3CC3)n2)cc1NC(=O)c1cnn2ccc(N3CC4(C3)CC(O)(C(F)F)C4)cc12 [Example 347]
4 | < 100 | Cc1nc(Nc2ncc(C(=O)Nc3cc(-c4noc([C@H]5C[C@@H]5F)n4)ccc3C)s2)cc(N2CC3(COC3)C2)n1 [Example 98-1]
5 | 100 to 1000 | Cc1ncc(-c2noc([C@H]3C[C@H](C(F)(F)F)C3)n2)cc1NC(=O)c1cnn2ccc(N3CC4(COC4)C3)cc12 [Example 281-66]
6 | 100 to 1000 | Cc1ccc(-c2noc([C@H]3C[C@@H]3F)n2)cc1NC(=O)c1cnc(-c2ccc(F)c3[nH]ncc23)o1 [Example 308-44]
7 | < 100 | Cc1ccc(-c2noc([C@H]3C[C@@H]3F)n2)cc1NC(=O)c1cnn2cc(N3CC4(COC4)C3)ccc12 [Example 54]
8 | > 1000 | Cc1ccc(-c2noc([C@H]3C[C@@H]3F)n2)cc1NC(=O)c1cnc(-c2ccnc(NC(=O)OC(C)(C)C)c2)o1 [Example 291]
9 | < 100 | Cc1nc2cc(-c3ncc(C(=O)Nc4cc(-c5noc([C@H]6C[C@@H]6F)n5)ccc4C)o3)ccc2[nH]1 [Example 308-40]
10 | 100 to 1000 | Cc1ccc(-c2noc([C@H]3C[C@@H]3F)n2)cc1NC(=O)c1cnc(-c2ccc3[nH]c4ccccc4c3c2)o1 [Example 303]
11 | < 100 | CCOC(=O)c1cc2cc(-c3ncc(C(=O)Nc4cc(-c5noc([C@H]6C[C@@H]6F)n5)ccc4C)o3)ccc2[nH]1 [Example 308-26]
12 | > 1000 | Cc1ccc(-c2noc([C@H]3C[C@@H]3F)n2)cc1NC(=O)c1cnc(-c2ccccc2N2CC3(COC3)C2)o1 [Example 289]
13 | < 100 | Cc1ccc(-c2noc([C@H]3C[C@@H]3F)n2)cc1NC(=O)c1cnn2ccc(OC3COC3)cc12 [Example 219]
14 | 100 to 1000 | Cc1ccc(-c2noc(C3CN(C(=O)C4(F)CC4)C3)n2)cc1NC(=O)c1cnn2ccc(N3CC4(COC4)C3)cc12 [Example 281-33]
15 | 100 to 1000 | Cc1ncc(-c2nnn(C3CC(F)(F)C3)n2)cc1NC(=O)c1cnn2ccc(N3CC4(C3)CC(O)(C(F)F)C4)cc12 [Example 312]
16 | > 1000 | Cc1ccc(-c2noc([C@H]3C[C@@H]3F)n2)cc1NC(=O)c1cnn2cc(Cl)c(-c3c(C)nn(C(F)F)c3C)cc12 [Example 167]
17 | < 100 | COCCn1nc(C)c(-c2ccn3ncc(C(=O)Nc4cc(-c5noc([C@H]6C[C@@H]6F)n5)ccc4C)c3c2)c1C [Example 146]
18 | < 100 | Cc1ccc(-c2noc([C@@H]3C[C@@H]3C(F)F)n2)cc1NC(=O)c1cnn2ccc(N3CC4(COC4)C3)cc12 [Example 277]
19 | > 1000 | Cc1ccc(-c2noc([C@H]3C[C@@H]3F)n2)cc1NC(=O)c1cnn(C)c1 [Example 35]
20 | < 100 | Cc1ccc(-c2noc(C3CN(CC(F)(F)F)C3)n2)cc1NC(=O)c1cnn2ccc(N3CC4(C3)CC(O)(C(F)F)C4)cc12 [Example 281-39]
21 | > 1000 | Cc1ccc(-c2noc([C@H]3C[C@@H]3F)n2)cc1NC(=O)c1cnn(-c2ccccc2)c1C [Example 98]
22 | 100 to 1000 | Cc1ncc(-c2noc(C3C[C@@H]3C(F)F)n2)cc1NC(=O)c1cnn2ccc(N3CC4(COC4)C3)cc12 (stereo partly shown) [Example 281-60]
23 | < 100 | Cc1ccc(-c2ncc3cccn3n2)cc1NC(=O)c1cnn2ccc(N3CC4(C3)CC(O)(C(F)F)C4)cc12 [Example 320]
24 | > 1000 | CC(=O)N1CC2(CC(c3nc(-c4cnc(C)c(NC(=O)c5cnn6ccc(N7CC8(COC8)C7)cc56)c4)no3)C2)C1 [Example 281-76]
25 | 100 to 1000 | Cc1ncc(-c2noc(N3CC(F)(F)C3)n2)cc1NC(=O)c1cnn2ccc(N3CC4(C3)CC(O)(C(F)F)C4)cc12 [Example 281-121]
26 | 100 to 1000 | Cc1ccc(-c2noc([C@H]3C[C@@H]3F)n2)cc1NC(=O)c1cnn2ccc(-c3cnc(C(C)(C)O)nc3)cc12 [Example 158]

Tested on: M-07e cells
Test: M-07e cellular assay (SCF-mediated cell proliferation)
Assay type: cell-based
Conditions: Homo sapiens, 72 hours, CellTiter Glo
Procedure, shortened: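 CellTiter Glo luminescence after 72 h compound exposure in SCF (EC90)-stimulated M-07e cells expressing endogenous human c-KIT.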

Row | SMILES | EC50 [nM]
27 | Cc1ccc(-c2noc([C@H]3C[C@@H]3F)n2)cc1NC(=O)c1cnn2ccc(-c3cc(C(F)(F)F)nn3C(C)C)cc12 [Example 171-23] | > 1000
28 | Cc1ccc(-c2noc([C@H]3C[C@@H](OC(F)F)C3)n2)cc1NC(=O)c1cnn2ccc(N3CC4(C3)CC(O)(C(F)F)C4)cc12 [Example 281-20] | < 100
29 | Cc1sc(-c2nccc(C3CC3)n2)cc1NC(=O)c1cnn2ccc(N3CC4(C3)CC(O)(C(F)F)C4)cc12 [Example 347] | 100 to 1000
30 | Cc1nc(Nc2ncc(C(=O)Nc3cc(-c4noc([C@H]5C[C@@H]5F)n4)ccc3C)s2)cc(N2CC3(COC3)C2)n1 [Example 98-1] | < 100
31 | Cc1ncc(-c2noc([C@H]3C[C@H](C(F)(F)F)C3)n2)cc1NC(=O)c1cnn2ccc(N3CC4(COC4)C3)cc12 [Example 281-66] | < 100
32 | Cc1ccc(-c2noc([C@H]3C[C@@H]3F)n2)cc1NC(=O)c1cnc(-c2ccc(F)c3[nH]ncc23)o1 [Example 308-44] | 100 to 1000
33 | Cc1ccc(-c2noc([C@H]3C[C@@H]3F)n2)cc1NC(=O)c1cnn2cc(N3CC4(COC4)C3)ccc12 [Example 54] | < 100
34 | Cc1ccc(-c2noc([C@H]3C[C@@H]3F)n2)cc1NC(=O)c1cnc(-c2ccnc(NC(=O)OC(C)(C)C)c2)o1 [Example 291] | > 1000
35 | Cc1nc2cc(-c3ncc(C(=O)Nc4cc(-c5noc([C@H]6C[C@@H]6F)n5)ccc4C)o3)ccc2[nH]1 [Example 308-40] | < 100
36 | Cc1ccc(-c2noc([C@H]3C[C@@H]3F)n2)cc1NC(=O)c1cnc(-c2ccc3[nH]c4ccccc4c3c2)o1 [Example 303] | 100 to 1000
37 | CCOC(=O)c1cc2cc(-c3ncc(C(=O)Nc4cc(-c5noc([C@H]6C[C@@H]6F)n5)ccc4C)o3)ccc2[nH]1 [Example 308-26] | 100 to 1000
38 | Cc1ccc(-c2noc([C@H]3C[C@@H]3F)n2)cc1NC(=O)c1cnc(-c2ccccc2N2CC3(COC3)C2)o1 [Example 289] | > 1000
39 | Cc1ccc(-c2noc([C@H]3C[C@@H]3F)n2)cc1NC(=O)c1cnn2ccc(OC3COC3)cc12 [Example 219] | < 100
40 | Cc1ccc(-c2noc(C3CN(C(=O)C4(F)CC4)C3)n2)cc1NC(=O)c1cnn2ccc(N3CC4(COC4)C3)cc12 [Example 281-33] | 100 to 1000
41 | Cc1ncc(-c2nnn(C3CC(F)(F)C3)n2)cc1NC(=O)c1cnn2ccc(N3CC4(C3)CC(O)(C(F)F)C4)cc12 [Example 312] | < 100
42 | Cc1ccc(-c2noc([C@H]3C[C@@H]3F)n2)cc1NC(=O)c1cnn2cc(Cl)c(-c3c(C)nn(C(F)F)c3C)cc12 [Example 167] | > 1000
43 | COCCn1nc(C)c(-c2ccn3ncc(C(=O)Nc4cc(-c5noc([C@H]6C[C@@H]6F)n5)ccc4C)c3c2)c1C [Example 146] | < 100
44 | Cc1ccc(-c2noc([C@@H]3C[C@@H]3C(F)F)n2)cc1NC(=O)c1cnn2ccc(N3CC4(COC4)C3)cc12 [Example 277] | < 100
45 | Cc1ccc(-c2noc([C@H]3C[C@@H]3F)n2)cc1NC(=O)c1cnn(C)c1 [Example 35] | > 1000
46 | Cc1ccc(-c2noc(C3CN(CC(F)(F)F)C3)n2)cc1NC(=O)c1cnn2ccc(N3CC4(C3)CC(O)(C(F)F)C4)cc12 [Example 281-39] | < 100
47 | Cc1ccc(-c2noc([C@H]3C[C@@H]3F)n2)cc1NC(=O)c1cnn(-c2ccccc2)c1C [Example 98] | > 1000
48 | Cc1ncc(-c2noc(C3C[C@@H]3C(F)F)n2)cc1NC(=O)c1cnn2ccc(N3CC4(COC4)C3)cc12 (stereo partly shown) [Example 281-60] | 100 to 1000
49 | Cc1ccc(-c2ncc3cccn3n2)cc1NC(=O)c1cnn2ccc(N3CC4(C3)CC(O)(C(F)F)C4)cc12 [Example 320] | < 100
50 | CC(=O)N1CC2(CC(c3nc(-c4cnc(C)c(NC(=O)c5cnn6ccc(N7CC8(COC8)C7)cc56)c4)no3)C2)C1 [Example 281-76] | > 1000
51 | Cc1ncc(-c2noc(N3CC(F)(F)C3)n2)cc1NC(=O)c1cnn2ccc(N3CC4(C3)CC(O)(C(F)F)C4)cc12 [Example 281-121] | < 100
52 | Cc1ccc(-c2noc([C@H]3C[C@@H]3F)n2)cc1NC(=O)c1cnn2ccc(-c3cnc(C(C)(C)O)nc3)cc12 [Example 158] | < 100
